Laboratory results as given in publication PMC9610410, “Pelargonium sidoides Root Extract: Simultaneous HPLC Separation, Determination, and Validation of Selected Biomolecules and Evaluation of SARS-CoV-2 Inhibitory Activity” (Pharmaceuticals, 2022).
Like-named read-outs stand apart in the source and are kept apart here.

How the values were obtained:
SARS-CoV-2 [1] = assay: microbe, parasite or virus in culture; assay type: cell-based; conditions: for IC50: Severe acute respiratory syndrome coronavirus 2, Vero C1008, SARS-CoV-2-induced cytopathic effect in Vero E6 cells; for Selectivity Index (SI): antiviral activity relative to cellular toxicity (CC50/IC50), Vero E6
[2] = MTT cytotoxicity assay against normal cell line (Vero E6); conditions: African green monkey, Vero E6 cells
SARS-CoV-2 [3] = test system: SARS-CoV-2; set-up: method as in PMID 34214752; conditions: cited from earlier work; for IC50: SARS-CoV-2 in Vero E6 cells, positive controls reported by the same laboratory
in vitro = conditions: African green monkey
Vero E6 cells = conditions: positive controls reported by the same laboratory; cited from earlier work

For Oc1cc(O)c2c(c1)O[C@H](c1ccc(O)c(O)c1)[C@@H](O)C2 [Catechin, (+)−catechin], the IC50 (SARS-CoV-2 [1]) was 58.55 ± 0.088 µM, the “Selectivity Index (SI)” value (SARS-CoV-2 [1]) was 0.9 and the CC50 [2] was 52.76 ± 0.079 µM.
In the case of CCN(CC)CCCC(C)Nc1ccnc2cc(Cl)ccc12 (stereo not shown) [Chloroquine], the IC50 (SARS-CoV-2 [3]) is listed as 22.7 µM.
For O=C(O)c1cc(O)c(O)c(O)c1 [Gallic acid, 3,4,5-trihydroxybenzoic acid], the IC50 (SARS-CoV-2 [1]) was 96.41 ± 0.03 µM, the “Selectivity Index (SI)” value (SARS-CoV-2 [1]) was 4.6 and the CC50 (in vitro) was 439.7 ± 0.065 µM.
For CCN(CCO)CCCC(C)Nc1ccnc2cc(Cl)ccc12 (stereo not shown) [Hydroxychloroquine], the CC50 (Vero E6 cells) is listed as 356 µM, the IC50 (SARS-CoV-2 [3]) is listed as 32.8 µM and the “Selectivity Index (SI)” value (SARS-CoV-2 [3]; positive controls) is listed as 10.85.
For COc1cc2ccc(=O)oc2cc1O [Scopoletin, 7-hydroxy-6-methoxycoumarin], the IC50 (SARS-CoV-2 [1]) was 17.8 ± 0.91 µM, the “Selectivity Index (SI)” value (SARS-CoV-2 [1]) was 14.22 and the CC50 (in vitro) was 253.1 ± 0.45 µM.
With COc1c(O)cc2oc(=O)ccc2c1OC [Umckalin, 7-hydroxy-5,6-dimethoxycoumarin] the IC50 (SARS-CoV-2 [1]) was 311.6 ± 0.043 µM, the “Selectivity Index (SI)” value (SARS-CoV-2 [1]) was 0.5 and the CC50 [2] was 164.1 ± 0.54 µM.
